The values that follow come from ChEMBL document CHEMBL5223175, “Discovery of novel 2-oximino-2-indolylacetamide derivatives as potent anticancer agents capable of inducing cell autophagy and ferroptosis” (Bioorg Med Chem, 2023).

Structures are written as SMILES. The source made the active and inactive calls. The calls are words filed in the database; no cut-off is given here.

Data set [1] deals with 5-8F. The experiment in a line: Induction of lipid peroxidation in human 5-8F cells at 30 uM after 48 hrs by flow cytometry analysis. In kind it is functional, cell-based. (In general: A flow cytometer gives signals particle by particle.)
Data set [2] has as its system 5-8F. The data set can be described thus: Downregulation of p-mTOR expression in human 5-8F cells at 10 to 30 uM by Western blotting analysis. In kind it is functional, cell-based. Conditions: dose 10-30 µM.
In data set [3] the test system is 5-8F. The data set can be described thus: Induction of apoptosis in human 5-8F cells at 30 uM incubated for 48 hrs by Annexin V-FITC and PI staining based flow cytometry analysis. Format: functional.
The subject of data set [4] is 5-8F. The data set can be described thus: Induction of apoptosis in human 5-8F cells assessed as upregulation of p53 expression at 10 to 30 uM incubated for 48 hrs by Western blotting analysis. In kind it is functional, cell-based. Particulars: dose 10-30 µM. On the technique in general: In western blotting, separated proteins are transferred to a membrane and probed.

For data set [5], the system named is 5-8F. The experiment in a line: Antiproliferative activity against human 5-8F cells assessed as reduction in cell viability incubated for 72 hrs by CCK-8 assay. In kind it is functional, cell-based. (Tetrazolium dyes change colour on reduction, which living cells bring about.)
For a further data set, the system named is SK-HEP1. The experiment in a line: Antiproliferative activity against human SK-HEP1 cells assessed as cell viability at 80 uM incubated for 72 hrs by CCK-8 assay. In kind it is functional. Conditions: read-out: Activity.
Data set [6] deals with 5-8F. The experiment in a line: Induction of ferroptosis in human 5-8F cells assessed as change in mitochondrial morphology at 30 uM incubated for 48 hrs by TEM analysis. In kind it is functional, cell-based.
Data set [7] deals with 5-8F. The data set can be described thus: Induction of apoptosis in human 5-8F cells assessed as appearance of floating cells incubated for 48 hrs by microscopic analysis. In kind it is functional, cell-based. Particulars: dose 10-30 µM.
Data set [8] has as its system 5-8F. The experiment in a line: Induction of ferroptosis in human 5-8F cells assessed as decrease in GPx4 expression at 10 to 30 uM incubated for 48 hrs by Western blotting analysis. In kind it is functional, cell-based. Particulars: dose 10-30 µM.
Data set [9] deals with 5-8F. The experiment in a line: Induction of lipid peroxidation in human 5-8F cells at 30 uM after 48 hrs by BODIPY C11 staining based fluorescence microscopy analysis. Format: functional, cell-based.
A short description of data set [10]: Toxicity in BALB/c mouse xenografted with human 5-8F cells assessed as decrease in body weight at 10 to 20 mg/kg, ip administered daily. In kind it is organism-based. Particulars: in vivo, dose 10-20 mg/kg.
Data set [11] has as its system 5-8F. The experiment in a line: Antiproliferative activity against human 5-8F cells assessed as reduction in Ki67 expression at 10 to 30 uM by Western blotting analysis. In kind it is functional, cell-based. Conditions: dose 10-30 µM.
The test system of data set [12] is 5-8F. The data set can be described thus: Downregulation of p-ERK1/2 in human 5-8F cells at 10 to 30 uM by Western blotting analysis. Format: functional, cell-based. Particulars: dose 10-30 µM.
In data set [13] the test system is 5-8F. The data set can be described thus: Induction of ferroptosis in human 5-8F cells assessed as appearance of […] at 30 uM incubated for 48 hrs by TEM analysis. Format: functional, cell-based.
Data set [14] concerns 5-8F. The experiment in a line: Induction of autophagy in human 5-8F cells assessed as appearance of autophagic vacuoles at 30 uM incubated for 48 hrs by TEM analysis. In kind it is functional, cell-based.
The test system of another data set is HeLa. The data set can be described thus: Antiproliferative activity against human HeLa cells assessed as cell viability at 80 uM incubated for 72 hrs by CCK-8 assay. Conditions: read-out: Activity. Format: functional.
Data set [15] in a line: Toxicity in BALB/c mouse xenografted with human 5-8F cells assessed as change in kidney morphology at 10 to 20 mg/kg, ip administered daily by H and E staining based assay. Particulars: in vivo, dose 10-20 mg/kg. In kind it is organism-based.
The subject of data set [16] is 5-8F. The experiment in a line: Induction of ROS generation in human 5-8F cells at 30 uM pretreated with NAC for 2 hrs followed by compound addition and measured after 48 hrs by DCFH-DA staining based flow cytometry analysis. Format: functional, cell-based.
Data set [17] has as its system 5-8F. The experiment in a line: Induction of ferroptosis in human 5-8F cells assessed as appearance of small swollen contractile punctate structures at 30 uM incubated for 48 hrs by MitoTracker Red staining based confocal microscopic analysis. In kind it is functional, cell-based.
Data set [18] in a line: Toxicity in BALB/c mouse xenografted with human 5-8F cells assessed as change in spleen morphology at 10 to 20 mg/kg, ip administered daily by H and E staining based assay. Format: organism-based. Conditions: in vivo, dose 10-20 mg/kg.
The test system of data set [19] is 5-8F. The data set can be described thus: Induction of ROS generation in human 5-8F cells at 10 to 30 uM after 48 hrs by DCFH-DA staining based flow cytometry analysis. Format: functional, cell-based. Conditions: dose 10-30 µM.

By IC50 is commonly meant the concentration that inhibits the measured activity by half. `Cn1cc(/C(=N\O)C(=O)Nc2ccc(Cl)cc2)c2ccccc21`: the outcome in the data set on 5-8F [1], in the data set with 5-8F [2], in the data set on 5-8F [4], in the data set on 5-8F [6], with 5-8F [8] and with 5-8F [9] was Active. In addition, the outcome in the data set with 5-8F [11], in the data set on 5-8F [12], in the data set on 5-8F [13], in the data set with 5-8F [14], in the data set with 5-8F [17] and in the data set with 5-8F [19] was Active. Besides, the Activity is 29.1% in the data set on 5-8F [3]; “Dose-Dependent Effect” with 5-8F [7]; “Non-Toxic” in [10]; “Non-Toxic” in data set [15]; “Non-Toxic” in data set [18]. Further, the IC50 in the data set on 5-8F [5] came out at 9.43 µM. Also, the viability at 80 µM in the data set on SK-HEP1 is 20.9%; in the data set with HeLa it was 12.3%. Moreover, the outcome in the data set on 5-8F [16] was inactive.
